Measured values: paper PMC8387526, “Small peptide-based GLP-1R ligands: an approach to reduce the kidney uptake of radiolabeled GLP-1R-targeting agents?” (EJNMMI Radiopharmacy and Chemistry, 2021)
Entries after “also recorded” stand apart in the source; their conditions may differ. Square brackets hold non-standard residues; d marks the D form. Peptide text beside a SMILES is read from it. * marks the point of attachment. Benzoyl(4-SiFtBu2) = CC(C)(C)[Si](F)(c1ccc(C(=O)*)cc1)C(C)(C)C; αMePhe(2-F) = C[C@](N)(Cc1ccccc1F)C(=O)O; hPhe = N[C@@H](CCc1ccccc1)C(=O)O; Dap = NC[C@H](N)C(=O)O; Aib = CC(C)(N)C(=O)O

Target: human GLP-1 receptor (Homo sapiens, UniProt P43220)
Test: Competitive binding (IC50) on HEK293-hGLP-1R cells with radioligand [Nle^14, [^125I]Tyr(3-I)^40]exendin-4
Set-up: Dr. Timothy Kieffer (University of British Columbia); host or cells: HEK293
Conditions: for IC50 ± SD (result in words): ligand range 10^-11 to 10^-5 M
Method: Dr. Timothy Kieffer (University of British Columbia, Vancouver, Canada). Cells were cultivated in high glucose DMEM (25.0 mM D-glucose, 3.97 mM GlutaMAX; REF-number: 61965–026; Fisher Scientific GmbH, Schwerte, Germany) supplemented with 10% fetal bovine serum and 1 mM sodium pyruvate. Medium for stably transfected HEK293-hGLP-1R cells was constantly supplemented with 1 mg/mL Geneticin (G-418 Biochrom, Merck KgaA, Darmstadt, Germany) as selection antibiotic. The cell line was kept at 37 °C in a humidified 5% CO2 atmosphere. One day (24 ± 2 h) prior to all in vitro experiments, the cultivated HEK293-h-GLP-1R cells were harvested using a mixture of trypsin/ethylenediaminetetraacetic acid (0.05%/0.02%) in phosphate-buffered saline (PBS) (Gibco, Germany) and centrifuged at 1300 rpm (ca. 190×g) for 3 min at room temperature (Heraeus Megafuge 16, Thermo Fisher, Germany). After centrifugation, the supernatant was disposed and the cell pellet was resuspended in culture medium. Cells were counted with a Neubauer hemocytometer (Paul Marienfeld GmbH & Co. KG, Lauda-Königshofen, Germany) and seeded in 24-well plates. IC50 values were determined by transferring 1.50 × 10^5 cells/mL per well into 24-well plates.
Detailed information on affinity experiments is provided in the SI. In brief, competitive binding studies were determined on HEK293-hGLP-1R cells (1.50 × 10^5 cells in 1 mL/well) after incubation at 4 °C for 2 hours, using [^125I]Tyr(3-I)^40–3 (0.41 nM/well) as reference radioligand (n = 3).
Dr. Timothy J. Kieffer (University of British Columbia, Vancouver, Canada). Cells were cultivated in high glucose DMEM (25.0 mM D-glucose, 3.97 mM GlutaMAX; REF-number: 61965-026; Fisher Scientific GmbH, Schwerte, Germany) supplemented with 10% fetal bovine serum and 1 mM sodium pyruvate. Medium for stably transfected HEK293-hGLP-1R cells was constantly supplemented with 1 mg/mL Geneticin (G-418 Biochrom, Merck KgaA, Darmstadt, Germany) as selection antibiotic. The cell line was kept at 37 °C in a humidified 5% CO2 atmosphere. One day (24 ± 2 h) prior to all in vitro experiments, the cultivated cells were harvested using a mixture of trypsin/ethylenediaminetetraacetic acid (0.05%/0.02%) in phosphate-buffered saline (PBS) (Merck KgaA, Darmstadt, Germany) and centrifuged at 1300 rpm (ca. 190 × g) for 3 min at room temperature (Heraeus Megafuge 16, Thermo Fisher Scientific, Darmstadt, Germany). After centrifugation, the supernatant was disposed and the cell pellet was resuspended in culture medium. Cells were counted with a Neubauer hemocytometer (Paul Marienfeld GmbH & Co. KG, Lauda-Königshofen, Germany) and seeded in 24-well plates (Greiner Bio-One, Kremsmünster, Austria). IC50 values were determined by transferring 1.50 × 10^5 cells/mL per well into 24-well plates (Greiner Bio-One, Kremsmünster, Austria).
The culture medium was removed and the cells were washed with 500 µL of Hank’s balanced salt solution (HBSS) (Merck KGaA, Darmstadt, Germany), containing 1% bovine serum albumin (BSA) (Merck KGaA, Darmstadt, Germany). Afterwards, 200 µL of HBSS (1% BSA) were added to each well and equilibrated on ice (4 °C) for 15 min. 25 µL/well of either HBSS (1% BSA) (= control) or of solutions, containing the respective unlabeled ligand in increasing concentrations (10^-10 - 10^-4 M in HBSS) were added, followed by the addition of 25 µL of [Nle^14, [^125I]Tyr(3-I)^40]exendin-4 in HBSS (1% BSA) to each well. Experiments were carried out in triplicates for each concentration. The final concentrations of unlabeled ligand ranged from 10^-11 - 10^-5 M and the final radioligand concentration was 0.41 nM in all binding assays. The cells were incubated for two hours at 4 °C. Incubation was terminated by removal of the incubation medium. The cells were washed with 250 µL of HBSS (1% BSA) and the wash medium was combined with the respective supernatant. This fraction represents the amount of free radioligand. The cells were lysed by addition of 250 µL of 1 M aqueous NaOH. […]

human GLP-1 receptor, sequence (P43220 24-463): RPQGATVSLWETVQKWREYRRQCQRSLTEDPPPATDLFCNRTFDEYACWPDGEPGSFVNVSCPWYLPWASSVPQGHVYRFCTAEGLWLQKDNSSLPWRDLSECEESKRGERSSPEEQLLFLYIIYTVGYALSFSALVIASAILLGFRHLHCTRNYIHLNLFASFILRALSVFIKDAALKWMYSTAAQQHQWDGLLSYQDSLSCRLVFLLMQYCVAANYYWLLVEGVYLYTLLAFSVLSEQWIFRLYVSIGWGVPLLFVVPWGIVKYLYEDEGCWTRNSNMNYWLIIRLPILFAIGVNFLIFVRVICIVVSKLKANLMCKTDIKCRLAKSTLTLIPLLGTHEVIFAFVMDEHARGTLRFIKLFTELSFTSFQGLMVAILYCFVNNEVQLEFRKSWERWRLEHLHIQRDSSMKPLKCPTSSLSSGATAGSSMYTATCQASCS

| Compound | IC50 ± SD (result in words) (w/ and w/o BSA) | further results |
| --- | --- | --- |
| H-L-His-Aib-L-Glu-Gly-L-Thr-L-(α-Me)Phe(2-F)-L-Thr-L-Ser-L-Asp-L-Val-L-Dap(SiFA)-NH2 [Peptide 9] | no affinity was detected; also recorded: no detectable affinity n = 2 (w/ and w/o BSA) | – |
| H-L-His-Aib-L-Glu-Gly-L-Thr-L-(α-Me)Phe-L-Thr-L-Ser-L-Asp-L-Phe(4-I)-L-homoPhe-NH2 [Peptide 8] | eliminated any detectable affinity; also recorded: no detectable affinity n = 2 (w/ and w/o BSA) | – |
| CC(C)C[C@H](NC(=O)[C@H](CNC(=O)c1ccc([Si](F)(C(C)(C)C)C(C)(C)C)cc1)NC(=O)[C@H](CO)NC(=O)[C@H](CCc1ccccc1)NC(=O)[C@@H](NC(=O)[C@H](CC(=O)O)NC(=O)[C@H](CO)NC(=O)[C@@H](NC(=O)[C@](C)(Cc1ccccc1F)NC(=O)[C@@H](NC(=O)CNC(=O)[C@H](CCC(=O)O)NC(=O)C(C)(C)NC(=O)[C@@H](N)Cc1c[nH]cn1)[C@@H](C)O)[C@@H](C)O)C(C)C)C(=O)N[C@@H](CCC(=O)O)C(N)=O [Peptide 11, H-L-His-Aib-L-Glu-Gly-L-Thr-L-(α-Me)Phe(2-F)-L-Thr-L-Ser-L-Asp-L-Val-L-homoPhe-L-Ser-L-Dap(SiFA)-L-Leu-L-Glu-NH2] (H-H[Aib]EGT[αMePhe(2-F)]TSDV[hPhe]S[Dap](Benzoyl(4-SiFtBu2))LE-NH2) | – | IC50: 7.12 ± 2.47 µM |
| CC(C)C[C@H](NC(=O)[C@H](CNC(=O)c1ccc([Si](F)(C(C)(C)C)C(C)(C)C)cc1)NC(=O)[C@H](CO)NC(=O)[C@H](CO)NC(=O)[C@@H](NC(=O)[C@H](CC(=O)O)NC(=O)[C@H](CO)NC(=O)[C@@H](NC(=O)[C@](C)(Cc1ccccc1F)NC(=O)[C@@H](NC(=O)CNC(=O)[C@H](CCC(=O)O)NC(=O)C(C)(C)NC(=O)[C@@H](N)Cc1c[nH]cn1)[C@@H](C)O)[C@@H](C)O)C(C)C)C(=O)N[C@@H](CCC(=O)O)C(N)=O [Peptide 10, H-L-His-Aib-L-Glu-Gly-L-Thr-L-(α-Me)Phe(2-F)-L-Thr-L-Ser-L-Asp-L-Val-L-Ser-L-Ser-L-Dap(SiFA)- L-Leu-L-Glu-NH2] (H-H[Aib]EGT[αMePhe(2-F)]TSDVSS[Dap](Benzoyl(4-SiFtBu2))LE-NH2) | – | IC50: 2.95 ± 0.31 µM |
| H-L-His-Aib-L-Glu-Gly-L-Thr-L-(α-Me)Phe(2-F)-L-Thr-L-Ser-L-Asp-O2Oc-L/D-Dap(SiFA)-L-Leu-L-Glu-NH2 [Peptide 13] | no radioligand displacement was observed; also recorded: no detectable affinity n = 2 (w/ and w/o BSA) | – |
| H-L-His-Aib-L-Glu-Gly-L-Thr-L-(α-Me)Phe-L-Thr-L-Ser-L-Asp-OH [Peptide 6] | – | IC50 ± SD (result in words) (w/ BSA (1% BSA)): no detectable affinity n = 1 (w/ BSA) |
| H-L-His-Aib-L-Glu-Gly-L-Thr-L-(α-Me)Phe(2-F)-L-Thr-L-Ser-L-Asp-NH2 [Peptide 7] | no detectable affinity n = 2 (w/ and w/o BSA) | – |
